Test results taken from patent publication US8247211B2, “Glycopeptide antibiotics” (American Cyanamid Company, priority 2001, dated 2012).
Values after ≈ are worked out from the molar mass of the structure shown.

How the values were obtained:
Test in all cases: In vitro antibacterial evaluation: minimum inhibitory concentration (MIC), broth dilution method
Format in all cases: cell-based
Enterococcus sp. = test system: Enterococcus sp.
How it was run: (§1)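 An MIC is reported for each organism as the least concentration giving inhibition, using broth dilution over 64-0.06 μg/mL with a 5×10^5 CFU/mL inoculum.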

Escherichia coli [1] = test system: Escherichia coli
How it was run: as §1

Staphylococcus sp. = settings: 18 hours at 35° C.
How it was run: as §1

Streptococcus sp. = settings: 18 hours at 35° C.
How it was run: as §1

Escherichia coli [2] = test system: Escherichia coli; remark: listed apart in the source

SMILES | MIC Enterococcus avium (GC 4558) (Enterococcus sp.) [µg/mL] | MIC Enterococcus faecalis (ATCC 29212) (Enterococcus sp.) [µg/mL] | MIC Enterococcus faecalis (GC 2242) (Enterococcus sp.; 18 hours at 35° C.) [µg/mL] | MIC Enterococcus faecalis (GC 4552) (Enterococcus sp.; 18 hours at 35° C.) [µg/mL] | MIC Enterococcus faecalis (GC 4553) (Enterococcus sp.) [µg/mL] | MIC Enterococcus faecalis (GC 4554) (Enterococcus sp.) [µg/mL] | MIC Enterococcus faecium (GC 2243) (Enterococcus sp.) [µg/mL] | MIC Enterococcus faecium (GC 4556) (Enterococcus sp.) [µg/mL] | MIC Enterococcus faecium (GC 4557) (Enterococcus sp.) [µg/mL] | MIC Escherichia coli (GC 4559) (Escherichia coli [1]) [µg/mL] | MIC Escherichia coli (GC 4560) (Escherichia coli [1]) [µg/mL] | MIC Coagulase Negative Staphylococcus (GC 4547) (Staphylococcus sp.) [µg/mL] | MIC Coagulase Negative Staphylococcus (GC 4548) (Staphylococcus sp.) [µg/mL] | MIC Coagulase Negative Staphylococcus (GC 4549) (Staphylococcus sp.) [µg/mL] | MIC Coagulase Negative Staphylococcus (GC 4551) (Staphylococcus sp.) [µg/mL] | MIC Staphylococcus aureus (ATCC 29213) (Staphylococcus sp.) [µg/mL] | MIC Staphylococcus aureus (GC 1131) (Staphylococcus sp.) [µg/mL] | MIC Staphylococcus aureus (GC 4541) (Staphylococcus sp.) [µg/mL] | MIC Staphylococcus aureus (GC 4542) (Staphylococcus sp.) [µg/mL] | MIC Staphylococcus aureus (GC 4544) (Staphylococcus sp.) [µg/mL] | other results
CC(c1ccccc1)C1NC(=O)CNC(=O)C(CO)NC(=O)C(C(O)C2CNC(=N)N2C2OC(CO)C(O)C(O)C2O)NC(=O)C(C(O)C2CNC(=N)N2)NC(=O)C(Cc2ccc(OC3OC(CO)C(OC4OC(COC(=O)NCc5ccccc5)C(O)C(O)C4O)C(O)C3O)cc2)NC1=O (stereo not drawn) [Example 257b, γ-O-[(Benzylamino)carbonyl]-cyclo[glycyl-β-methylphenylalanyl-O-(4-O-hexopyranosylhexopyranosyl)tyrosyl-3-(2-iminoimidazolidin-4-yl)seryl-3-(3-hexopyranosyl-2-iminoimidazolidin-4-yl)serylseryl]] | 0.5 (≈ 0.35 µM) | 0.5 (≈ 0.35 µM) | 0.5 (≈ 0.35 µM) | >0.5 | 0.5 (≈ 0.35 µM) | >0.5 | 16 (≈ 11.2 µM) | 16 (≈ 11.2 µM) | 2 (≈ 1.4 µM) | >0.5 | 0.5 (≈ 0.35 µM) | 2 (≈ 1.4 µM) | 2 (≈ 1.4 µM) | 2 (≈ 1.4 µM) | 4 (≈ 2.8 µM) | 0.5 (≈ 0.35 µM) | 0.5 (≈ 0.35 µM) | 0.5 (≈ 0.35 µM) | 0.5 (≈ 0.35 µM) | 0.5 (≈ 0.35 µM) | MIC Enterococcus faecalis (GC 2691) (Enterococcus sp.; Enterococcus faecalis (GC 2691), 18 hours at 35° C.): 0.5 µg/mL (≈ 0.35 µM); MIC Enterococcus faecalis (GC 3059) (Enterococcus sp.; Enterococcus faecalis (GC 3059), 18 hours at 35° C.): 0.5 µg/mL (≈ 0.35 µM); MIC Enterococcus faecalis (GC 6189) (Enterococcus sp.; Enterococcus faecalis (GC 6189)): 0.5 µg/mL (≈ 0.35 µM); MIC Coagulase Negative Staphylococcus (GC 6257) (Staphylococcus sp.; Coagulase Negative Staphylococcus (GC 6257)): 1 µg/mL (≈ 0.7 µM); MIC Staphylococcus aureus (GC 3051) (Staphylococcus sp.; Staphylococcus aureus (GC 3051)): 0.5 µg/mL (≈ 0.35 µM); MIC Staphylococcus aureus (GC 3053) (Staphylococcus sp.; Staphylococcus aureus (GC 3053)): 0.5 µg/mL (≈ 0.35 µM); MIC Staphylococcus aureus (GC 4545) (Staphylococcus sp.): 0.5 µg/mL (≈ 0.35 µM); MIC Staphylococcus aureus-SMITH (GC 4543) (Staphylococcus sp.): 0.5 µg/mL (≈ 0.35 µM); MIC Staphylococcus haemolyticus (GC 4546) (Staphylococcus sp.): 2 µg/mL (≈ 1.4 µM); MIC Streptococcus agalactiae (GC 4564) (Streptococcus sp.): 1 µg/mL (≈ 0.7 µM); MIC Streptococcus pneumoniae (ATCC 6301) (Streptococcus sp.; Streptococcus pneumoniae (ATCC 6301)): 0.25 µg/mL (≈ 0.175 µM); MIC Streptococcus pneumoniae (GC 1894) (Streptococcus sp.; Streptococcus pneumoniae (GC 1894)): 0.25 µg/mL (≈ 0.175 µM); MIC Streptococcus pneumoniae (GC 4565) (Streptococcus sp.; Streptococcus pneumoniae (GC 4565)): 0.5 µg/mL (≈ 0.35 µM); MIC Streptococcus pyogenes (GC 4563) (Streptococcus sp.; Streptococcus pyogenes (GC 4563)): 0.12 µg/mL (≈ 0.084 µM); MIC Escherichia coli (ATCC 25922) (Escherichia coli [2]): >0.5 µg/mL
CC(c1ccc(F)cc1)C1NC(=O)CNC(=O)C(CO)NC(=O)C(C(O)C2CNC(=N)N2C2OC(CO)C(O)C(O)C2O)NC(=O)C(C(O)C2CNC(=N)N2)NC(=O)C(Cc2ccc(OC3OC(CO)C(OC4OC(CO)C(O)C(O)C4O)C(O)C3O)cc2)NC1=O (stereo not drawn) [Example 261a, Cyclo[glycyl-4-fluoro-β-methylphenylalanyl-O-(4-O-hexopyranosylhexopyranosyl)tyrosyl-3-(2-iminoimidazolidin-4-yl)seryl-3-(3-hexopyranosyl-2-iminoimidazolidin-4-yl)serylseryl]] | >64 | >64 | >64 | >64 | >64 | >64 | >64 | >64 | >64 | >64 | >64 | >64 | >64 | >64 | >64 | >64 | >64 | >64 | >64 | >64 | MIC Staphylococcus aureus (GC 4545) (Staphylococcus sp.): >64 µg/mL; MIC Staphylococcus aureus-SMITH (GC 4543) (Staphylococcus sp.): >64 µg/mL; MIC Staphylococcus haemolyticus (GC 4546) (Staphylococcus sp.): >64 µg/mL; MIC Streptococcus agalactiae (GC 4564) (Streptococcus sp.): >64 µg/mL; MIC Streptococcus pyogenes (ID-3187) (Streptococcus sp.): >64 µg/mL; MIC Escherichia coli (ATCC 25922) (Escherichia coli [2]): >64 µg/mL
CC(C)CC(=O)OC1C(OC2C(CO)OC(Oc3ccc(CC4NC(=O)C(C(C)c5ccc(F)cc5)NC(=O)CNC(=O)C(CO)NC(=O)C(C(O)C5CNC(=N)N5C5OC(CO)C(O)C(O)C5O)NC(=O)C(C(O)C5CNC(=N)N5)NC4=O)cc3)C(O)C2O)OC(CO)C(O)C1O (stereo not drawn) [Example 261b, Cyclo[glycyl-4-fluoro-β-methylphenylalanyl-O-[4-O-[2-O-(3-methylbutanoyl)hexopyranosyl]-hexopyranosyl]tyrosyl-3-(2-iminoimidazolidin-4-yl)seryl-3-(3-hexopyranosyl-2-imino-imidazolidin-4-yl)serylseryl]] | 64 (≈ 45.8 µM) | >64 | 64 (≈ 45.8 µM) | 64 (≈ 45.8 µM) | 64 (≈ 45.8 µM) | >64 | >64 | 64 (≈ 45.8 µM) | 16 (≈ 11.4 µM) | >64 | 4 (≈ 2.86 µM) | 8 (≈ 5.72 µM) | 4 (≈ 2.86 µM) | 4 (≈ 2.86 µM) | 8 (≈ 5.72 µM) | 8 (≈ 5.72 µM) | 16 (≈ 11.4 µM) | 16 (≈ 11.4 µM) | 16 (≈ 11.4 µM) | 8 (≈ 5.72 µM) | MIC Staphylococcus aureus (GC 4545) (Staphylococcus sp.): 16 µg/mL (≈ 11.4 µM); MIC Staphylococcus aureus-SMITH (GC 4543) (Staphylococcus sp.): 8 µg/mL (≈ 5.72 µM); MIC Staphylococcus haemolyticus (GC 4546) (Staphylococcus sp.): 8 µg/mL (≈ 5.72 µM); MIC Streptococcus agalactiae (GC 4564) (Streptococcus sp.): 8 µg/mL (≈ 5.72 µM); MIC Streptococcus pyogenes (ID-3187) (Streptococcus sp.): 4 µg/mL (≈ 2.86 µM); MIC Escherichia coli (ATCC 25922) (Escherichia coli [2]): >64 µg/mL
